# Assay results as given in ChEMBL document CHEMBL3868635, “Bromomethylthioindole Inspired Carbazole Hybrids as Promising Class of Anti-MRSA Agents” (ACS Med Chem Lett, 2016).
# How the values were obtained:
# Staphylococcus aureus [1] = test: Antibacterial activity against methicillin-susceptible Staphylococcus aureus ATCC 29213 incubated for overnight measured after 20 to 24 hrs by broth microdilution method; type: functional
# Mus musculus [2] = test: Acute toxicity in ICR mouse assessed as increase in body weight at 100 mg/kg, iv measured daily for 2 weeks; type: organism-based; settings: in vivo, 336 h
# Staphylococcus aureus [3] = test: Antibacterial activity against methicillin-resistant Staphylococcus aureus Y069 incubated for overnight measured after 20 to 24 hrs by broth microdilution method; type: functional
# Pseudomonas aeruginosa = test: Antibacterial activity against Pseudomonas aeruginosa ATCC 27853 incubated for overnight measured after 20 to 24 hrs by broth microdilution method; type: functional
# Escherichia coli = test: Antibacterial activity against Escherichia coli ATCC 25922 incubated for overnight measured after 20 to 24 hrs by broth microdilution method; type: functional
# Staphylococcus aureus [4] = test: Antibacterial activity against methicillin-resistant Staphylococcus aureus M013 incubated for overnight measured after 20 to 24 hrs by broth microdilution method; type: functional
# Staphylococcus aureus [5] = test: Antibacterial activity against methicillin-resistant Staphylococcus aureus Z234 incubated for overnight measured after 20 to 24 hrs by broth microdilution method; type: functional
# Staphylococcus aureus [6] = test: Antibacterial activity against methicillin-resistant Staphylococcus aureus N043 incubated for overnight measured after 20 to 24 hrs by broth microdilution method; type: functional
# Staphylococcus aureus [7] = test: Antibacterial activity against methicillin-resistant Staphylococcus aureus C217 incubated for overnight measured after 20 to 24 hrs by broth microdilution method; type: functional
# Staphylococcus aureus [8] = test: Antibacterial activity against methicillin-resistant Staphylococcus aureus 4N216 incubated for overnight measured after 20 to 24 hrs by broth microdilution method; type: functional
# Staphylococcus aureus [9] = test: Antibacterial activity against methicillin-susceptible Staphylococcus aureus M056 incubated for overnight measured after 20 to 24 hrs by broth microdilution method; type: functional
# Acinetobacter baumannii = test: Antibacterial activity against Acinetobacter baumannii ATCC 19606 incubated for overnight measured after 20 to 24 hrs by broth microdilution method; type: functional
# Enterococcus faecalis [10] = test: Antibacterial activity against vancomycin-resistant Enterococcus faecalis ATCC 51299 incubated for overnight measured after 20 to 24 hrs by broth microdilution method; type: functional
# Klebsiella pneumoniae = test: Antibacterial activity against Klebsiella pneumoneae ATCC 700603 incubated for overnight measured after 20 to 24 hrs by broth microdilution method; type: functional
# Mus musculus [11] = test: Acute toxicity in ICR mouse assessed as increase in survival at 100 mg/kg, iv measured after 2 weeks; type: organism-based; settings: in vivo, 336 h
# Staphylococcus aureus [12] = test: Antibacterial activity against vancomycin-intermediate and daptomycin-nonsusceptible methicillin-resistant Staphylococcus aureus Z172 incubated for overnight measured after 20 to 24 hrs by broth microdilution method; type: functional
# Staphylococcus aureus [13] = test: Antibacterial activity against methicillin-resistant Staphylococcus aureus L166 incubated for overnight measured after 20 to 24 hrs by broth microdilution method; type: functional
# Staphylococcus aureus [14] = test: Antibacterial activity against methicillin-resistant Staphylococcus aureus ATCC 43300 incubated for overnight measured after 20 to 24 hrs by broth microdilution method; type: functional
# Staphylococcus aureus [15] = test: Antibacterial activity against methicillin-resistant Staphylococcus aureus 4N216 infected in ICR mouse assessed as mouse survival rate at 20 mg/kg, iv administered as single dose 30 mins post-infection measured day 7 post infection relative to control; type: functional; settings: 4N216, iv
# [16] = Cmax in ICR mouse plasma at 10 mg/kg, iv measured after 20 mins by LC-MS/MS analysis; type: ADME, organism-based; design: dose 10 mg/kg, route intravenous
# [17] = Half life in ICR mouse plasma at 10 mg/kg, iv by LC-MS/MS analysis; type: ADME, organism-based
# [18] = AUC (0 to 24 hrs) in ICR mouse plasma at 10 mg/kg, iv by LC-MS/MS analysis; type: ADME, organism-based; design: dose 10 mg/kg, time < 24 hr, route intravenous
# [19] = Volume of distribution at steady state in ICR mouse plasma at 10 mg/kg, iv by LC-MS/MS analysis; type: ADME, organism-based; settings: read-out: Vdss
# [20] = Clearance in ICR mouse plasma at 10 mg/kg, iv by LC-MS/MS analysis; type: ADME, organism-based
# Enterococcus faecalis [21] = test: Potency index, ratio of […] MIC to compound MIC against vanomycin-resistant Enterococcus faecalis ATCC 51299
smiles,measurement,setting,value
OC(CNCCc1c[nH]c2cc(F)ccc12)Cn1c2ccc(Br)cc2c2cc(Br)ccc21 (configuration not stated),MIC,Staphylococcus aureus [1],1 µg/mL
same,Activity,Mus musculus [2],Non-Toxic
same,MIC,Staphylococcus aureus [3],1 µg/mL
same,MIC,Pseudomonas aeruginosa,> 64 µg/mL
same,MIC,Escherichia coli,8 to 16 µg/mL
same,MIC,Staphylococcus aureus [4],1 µg/mL
same,MIC,Staphylococcus aureus [5],1 µg/mL
same,MIC,Staphylococcus aureus [6],1 µg/mL
same,MIC,Staphylococcus aureus [7],1 µg/mL
same,MIC,Staphylococcus aureus [8],1 µg/mL
same,MIC,Staphylococcus aureus [9],1 to 2 µg/mL
same,MIC,Acinetobacter baumannii,16 µg/mL
same,MIC,Enterococcus faecalis [10],2 µg/mL
same,MIC,Klebsiella pneumoniae,> 64 µg/mL
same,Activity,Mus musculus [11],Non-Toxic
same,MIC,Staphylococcus aureus [12],2 µg/mL
same,MIC,Staphylococcus aureus [13],1 µg/mL
same,MIC,Staphylococcus aureus [14],1 µg/mL
Oc1ccc(CCNCC(O)Cn2c3ccc(Br)cc3c3cc(Br)ccc32)cc1O (configuration not stated),MIC,Staphylococcus aureus [1],16 µg/mL
same,MIC,Staphylococcus aureus [14],16 µg/mL
O[C@H](CNCCc1c[nH]c2cc(F)ccc12)Cn1c2ccc(Cl)cc2c2cc(Cl)ccc21,MIC,Staphylococcus aureus [1],0.5 to 1 µg/mL
same,MIC,Staphylococcus aureus [14],0.5 to 1 µg/mL
CN[C@H](CC(C)C)C(=O)N[C@H]1C(=O)N[C@@H](CC(N)=O)C(=O)N[C@H]2C(=O)N[C@H]3C(=O)N[C@H](C(=O)N[C@H](C(=O)O)c4cc(O)cc(O)c4-c4cc3ccc4O)[C@H](O)c3ccc(c(Cl)c3)Oc3cc2cc(c3O[C@@H]2O[C@H](CO)[C@@H](O)[C@H](O)[C@H]2O[C@H]2C[C@](C)(N)[C@H](O)[C@H](C)O2)Oc2ccc(cc2Cl)[C@H]1O [VANCOMYCIN],survival at 20 mg/kg,Staphylococcus aureus [15],100%
same,MIC,Staphylococcus aureus [4],≤ 0.5 µg/mL
same,Cmax,[16],58.5 µg/mL
same,half-life,[17],36 min
same,MIC,Enterococcus faecalis [10],8 to 16 µg/mL
same,AUC(0-t) at 24 h,[18],13700 ng·h/mL
same,Vd,[19],0.3 L/kg
same,clearance,[20],11.7 mL/min/kg
OC(CNc1nc(Cl)nc2ccccc12)Cn1c2ccc(Br)cc2c2cc(Br)ccc21 (configuration not stated),MIC,Staphylococcus aureus [1],> 32 µg/mL
same,MIC,Staphylococcus aureus [14],> 32 µg/mL
OC(CNCCc1c[nH]cn1)Cn1c2ccc(Br)cc2c2cc(Br)ccc21 (configuration not stated),MIC,Staphylococcus aureus [1],4 µg/mL
same,MIC,Staphylococcus aureus [14],4 µg/mL
O[C@H](CNCCc1c[nH]c2ccc(Cl)cc12)Cn1c2ccc(Br)cc2c2cc(Br)ccc21,MIC,Staphylococcus aureus [1],1 µg/mL
same,MIC,Staphylococcus aureus [14],1 µg/mL
OC(CNCCc1c[nH]c2ccc(Cl)cc12)Cn1c2ccc(Br)cc2c2cc(Br)ccc21 (racemic),MIC,Staphylococcus aureus [1],1 µg/mL
same,MIC,Staphylococcus aureus [3],1 µg/mL
same,MIC,Pseudomonas aeruginosa,> 64 µg/mL
same,MIC,Escherichia coli,> 64 µg/mL
same,MIC,Staphylococcus aureus [4],1 µg/mL
same,MIC,Staphylococcus aureus [5],1 µg/mL
same,MIC,Staphylococcus aureus [6],1 µg/mL
same,MIC,Staphylococcus aureus [7],1 µg/mL
same,MIC,Staphylococcus aureus [8],1 µg/mL
same,MIC,Staphylococcus aureus [9],1 µg/mL
same,MIC,Acinetobacter baumannii,> 64 µg/mL
same,MIC,Enterococcus faecalis [10],1 µg/mL
same,MIC,Klebsiella pneumoniae,> 64 µg/mL
same,Ratio,Enterococcus faecalis [21],4 - 18
same,MIC,Staphylococcus aureus [12],2 µg/mL
same,MIC,Staphylococcus aureus [13],1 µg/mL
same,MIC,Staphylococcus aureus [14],1 µg/mL
Oc1ccccc1CCNCC(O)Cn1c2ccc(Br)cc2c2cc(Br)ccc21 (configuration not stated),MIC,Staphylococcus aureus [1],1 to 2 µg/mL
same,MIC,Staphylococcus aureus [14],1 to 2 µg/mL
OC(CNCc1c[nH]c2cc(F)ccc12)Cn1c2ccc(Br)cc2c2cc(Br)ccc21 (configuration not stated),MIC,Staphylococcus aureus [1],2 µg/mL
same,MIC,Staphylococcus aureus [14],2 µg/mL
